This passage reports IC50 results from US8063065B2, “Azaindazole compounds as CCR1 receptor antagonists” (Boehringer Ingelheim International GmbH, priority 2008, dated 2011).

This assay addresses T1, CCR1 (Homo sapiens, UniProt P32246).
T1 sequence (P32246 1-355): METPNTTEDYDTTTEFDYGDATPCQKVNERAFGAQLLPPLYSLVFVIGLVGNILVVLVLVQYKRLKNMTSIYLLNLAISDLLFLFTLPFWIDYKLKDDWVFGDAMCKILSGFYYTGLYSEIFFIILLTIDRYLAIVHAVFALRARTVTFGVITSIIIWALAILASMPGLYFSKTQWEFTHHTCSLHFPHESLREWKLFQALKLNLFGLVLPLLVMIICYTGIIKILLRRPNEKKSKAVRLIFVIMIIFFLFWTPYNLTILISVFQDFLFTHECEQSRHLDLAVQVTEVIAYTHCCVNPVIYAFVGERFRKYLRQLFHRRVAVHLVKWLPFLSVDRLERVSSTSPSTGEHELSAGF
Nature of the assay: Method B: calcium flux in CCR1 transfected cells (Calcium 4 dye, […] FDSS6000), block of the CCR1/MIP-1α interaction. Conditions: Method B: Calcium 4 dye, MIP-1alpha at EC80. The assay is classed as cell-based. On the procedure: Compounds are assessed for the ability to block the interaction of CCR1 and MIP-1α in a functional cellular assay measuring calcium flux in CCR1 transfected cells.
Method B: Non-adherent cells purchased from Chemicon Corporation (HTS005C), stably expressing recombinant CCR1 and G-alpha-16 are grown in RPMI 1640 medium (Mediatech 10-080-CM) supplemented with 10% FBS, 0.4 mg/mL Geneticin and penicillin/streptomycin. On the day of the assay, the cells are loaded with Calcium 4 dye (Molecular Devices R7448) with Probenecid (Invitrogen P346400) at 8E5 cells/mL for 1 hour at room temperature. After 1 hour, they are seeded in a 384-well tissue culture-treated plate at a density of 20,000 cells/well. Appropriately diluted test compound is added to the well to achieve a top concentration of 3,000 nM (diluted 4-fold with 10 doses total). The final concentration of DMSO is 1%. The buffer is HBSS (Invitrogen 14025) with 20 mM HEPES at pH 7.4. The cells incubate 30 minutes at 37 C and then 30 minutes at room temperature. The plates are transferred to the […] FDSS6000 where MIP-1alpha in 1% BSA is added at the EC80 final concentration. All plates must be read within 4 hours of the start of dye-loading. Wells+/−MIP-1alpha containing diluted DMSO instead of compound serve as the controls. Data are analyzed using Activity Base software.

`CC[C@@H](NC(=O)c1cncc2c1cnn2-c1ccc(F)cc1)c1cc(S(C)(=O)=O)cn1C` [1-(4-Fluorophenyl)-1H-pyrazolo[3,4-c]pyridine-4-carboxylic acid [(R)-1-(4-methanesulfonyl-1-methyl-1H-pyrrol-2-yl)-propyl]-amide]: the half-inhibitory concentration (IC50) was 7 nM.
The same measure for `CS(=O)(=O)n1ccc2c(CNC(=O)c3cncc4c3cnn4-c3ccc(F)cc3)ccnc21` [1-(4-Fluorophenyl)-1H-pyrazolo[3,4-c]pyridine-4-carboxylic acid (1-methanesulfonyl-1H-pyrrolo[2,3-b]pyridin-4-ylmethyl)-amide]: 3 nM.
Under `CS(=O)(=O)c1cc(CNC(=O)c2cncc3c2cnn3-c2ccc(F)cc2)cc(Br)n1` [1-(4-Fluorophenyl)-1H-pyrazolo[3,4-c]pyridine-4-carboxylic acid (2-bromo-6-methanesulfonyl-pyridin-4-ylmethyl)-amide] stands 1 nM.
Consider `COC(=O)CCS(=O)(=O)c1cccc([C@H](C)NC(=O)c2cncc3c2cnn3-c2ccc(F)cc2)n1` [3-[6-((S)-1-{[1-(4-Fluorophenyl)-1H-pyrazolo[3,4-c]pyridine-4-carbonyl]-amino}-ethyl)-pyridine-2-sulfonyl]-propionic acid methyl ester], for which the IC50 was 35 nM.
Under `CC[C@H](NC(=O)c1cncc2c1cnn2-c1ccc(F)cc1)c1ccnc(N(C)CCOC)c1` [1-(4-Fluorophenyl)-1H-pyrazolo[3,4-c]pyridine-4-carboxylic acid ((S)-1-{2-[(2-methoxy-ethyl)-methyl-amino]-pyridin-4-yl}-propyl)-amide] stands 1 nM; under `CC[C@H](NC(=O)c1cncc2c1cnn2-c1ccc(F)cc1)c1ccnc(C#N)c1` [1-(4-Fluorophenyl)-1H-pyrazolo[3,4-c]pyridine-4-carboxylic acid [(S)-1-(2-cyano-pyridin-4-yl)-propyl]-amide], 0.3 nM.
On to `CC[C@H](NC(=O)c1cncc2c1cnn2-c1ccc(F)cc1)c1ccc(S(C)(=O)=O)o1` [1-(4-Fluorophenyl)-1H-pyrazolo[3,4-c]pyridine-4-carboxylic acid [(S)-1-(5-methanesulfonyl-furan-2-yl)-propyl]-amide], for which the IC50 was determined as 0.4 nM.
Turning to `CC[C@H](NC(=O)c1cncc2c1cnn2-c1ccc(F)cc1)c1ccc(S(C)(=O)=O)c(OC)c1` [1-(4-Fluorophenyl)-1H-pyrazolo[3,4-c]pyridine-4-carboxylic acid [(S)-1-(4-methanesulfonyl-3-methoxy-phenyl)-propyl]-amide], the IC50 came out at 0.2 nM.
On to `CCC[C@@H](NC(=O)c1cncc2c1cnn2-c1ccc(F)cc1)c1ccc(OC)c(S(C)(=O)=O)c1` [1-(4-Fluorophenyl)-1H-pyrazolo[3,4-c]pyridine-4-carboxylic acid [(R)-1-(3-methanesulfonyl-4-methoxy-phenyl)-butyl]-amide], for which the IC50 amounted to 0.2 nM.
In the case of `CC[C@H](NC(=O)c1cncc2c1cnn2-c1ccc(F)cc1)c1ccnc(N2CCOCC2)c1` [1-(4-Fluorophenyl)-1H-pyrazolo[3,4-c]pyridine-4-carboxylic acid [(S)-1-(2-morpholin-4-yl-pyridin-4-yl)-propyl]-amide], the half-maximal inhibitory concentration (IC50) amounted to 0.7 nM.
Under `CCC[C@H](NC(=O)c1cncc2c1cnn2-c1ccc(F)cc1)c1ccc(S(C)(=O)=O)nc1` [1-(4-Fluorophenyl)-1H-pyrazolo[3,4-c]pyridine-4-carboxylic acid [(S)-1-(6-methanesulfonyl-pyridin-3-yl)-butyl]-amide] stands 0.4 nM.
In the case of `CC[C@H](NC(=O)c1cncc2c1cnn2-c1ccc(F)cc1)c1cc(N(C)CC(N)=O)nc(S(C)(=O)=O)c1` [1-(4-Fluorophenyl)-1H-pyrazolo[3,4-c]pyridine-4-carboxylic acid {(S)-1-[2-(carbamoylmethyl-methyl-amino)-6-methanesulfonyl-pyridin-4-yl]-propyl}-amide], the IC50 is 0.3 nM.
The same measure for `CC[C@H](NC(=O)c1cncc2c1cnn2-c1ccc(F)cc1)c1cc(S(C)(=O)=O)cs1` [1-(4-Fluorophenyl)-1H-pyrazolo[3,4-c]pyridine-4-carboxylic acid [(S)-1-(4-methanesulfonyl-thiophen-2-yl)-propyl]-amide]: 0.1 nM; for `CCC(NC(=O)c1cncc2c1cnn2-c1ccc(F)cc1)c1nc(C(=O)NC)c(C)o1` (stereo not drawn) [1-(4-Fluorophenyl)-1H-pyrazolo[3,4-c]pyridine-4-carboxylic acid [1-(5-methyl-4-methylcarbamoyl-oxazol-2-yl)-propyl]-amide]: 9 nM; for `CC[C@H](NC(=O)c1cncc2c1cnn2-c1ccc(F)cc1)c1ccnc(S(=O)(=O)CCC(=O)OC)c1` [3-[4-((S)-1-{[1-(4-Fluorophenyl)-1H-pyrazolo[3,4-c]pyridine-4-carbonyl]-amino}-propyl)-pyridine-2-sulfonyl]-propionic acid methyl ester]: 1 nM.
Under `CC[C@H](NC(=O)c1cncc2c1cnn2-c1ccc(F)cc1)c1ccnc([S@+](C)[O-])c1` [1-(4-Fluorophenyl)-1H-pyrazolo[3,4-c]pyridine-4-carboxylic acid {(S)-1-[2-((S)-methanesulfinyl)-pyridin-4-yl]-propyl}-amide] stands 0.5 nM; under `O=C(NCc1cnc(Br)s1)c1cncc2c1cnn2-c1ccc(F)cc1` [1-(4-Fluorophenyl)-1H-pyrazolo[3,4-c]pyridine-4-carboxylic acid (2-bromo-thiazol-5-ylmethyl)-amide], 25 nM; under `CC[C@H](NC(=O)c1nccc2c1cnn2-c1ccc(F)cc1)c1ccnc(S(C)(=O)=O)c1` [1-(4-Fluorophenyl)-1H-pyrazolo[4,3-c]pyridine-4-carboxylic acid [(S)-1-(2-methanesulfonyl-pyridin-4-yl)-propyl]-amide], 3 nM.
Turning to `CC[C@H](NC(=O)c1cncc2c1cnn2-c1ccc(F)cc1)c1cc(NCC(N)=O)nc(S(C)(=O)=O)c1` [1-(4-Fluorophenyl)-1H-pyrazolo[3,4-c]pyridine-4-carboxylic acid {(S)-1-[2-(carbamoylmethyl-amino)-6-methanesulfonyl-pyridin-4-yl]-propyl}-amide], the IC50 was 0.4 nM.
Under `CC[C@H](NC(=O)c1cncc2c1cnn2-c1ccc(F)cc1)c1ccc(S(=O)(=O)NC2CC2)nc1` [1-(4-Fluorophenyl)-1H-pyrazolo[3,4-c]pyridine-4-carboxylic acid [(S)-1-(6-cyclopropylsulfamoyl-pyridin-3-yl)-propyl]-amide] stands 0.2 nM.
The same measure for `CC[C@H](NC(=O)c1cncc2c1cnn2-c1ccc(F)cc1)c1ccc(Br)s1` [1-(4-Fluorophenyl)-1H-pyrazolo[3,4-c]pyridine-4-carboxylic acid [(S)-1-(5-bromo-thiophen-2-yl)-propyl]-amide]: 0.6 nM; for `CN(CC(N)=O)c1cc(CNC(=O)c2cncc3c2cnn3-c2ccc(F)cc2)cc(S(C)(=O)=O)n1` [1-(4-Fluorophenyl)-1H-pyrazolo[3,4-c]pyridine-4-carboxylic acid [2-(carbamoylmethyl-methyl-amino)-6-methanesulfonyl-pyridin-4-ylmethyl]-amide]: 3 nM.
The same measure for `CCC(NC(=O)c1cncc2c1cnn2-c1ccc(F)cc1)C1CCCN(S(C)(=O)=O)C1` (stereo not drawn) [1-(4-Fluorophenyl)-1H-pyrazolo[3,4-c]pyridine-4-carboxylic acid [1-(1-methanesulfonyl-piperidin-3-yl)-propyl]-amide]: 2 nM; for `CS(=O)(=O)c1cc([C@H](CC(O)CO)NC(=O)c2cncc3c2cnn3-c2ccc(F)cc2)ccn1` (single isomer, unassigned): 11 nM.
`CC[C@H](NC(=O)c1cncc2c1cnn2-c1ccc(F)cc1)c1cnc(S(C)(=O)=O)o1` [1-(4-Fluorophenyl)-1H-pyrazolo[3,4-c]pyridine-4-carboxylic acid [(S)-1-(2-methanesulfonyl-oxazol-5-yl)-propyl]-amide]: the IC50 worked out at 3 nM.
The same measure for `CC[C@H](NC(=O)c1cncc2c1cnn2-c1ccc(F)cc1)[C@@H]1CCN(S(C)(=O)=O)[C@@H](C(N)=O)C1` [1-(4-Fluorophenyl)-1H-pyrazolo[3,4-c]pyridine-4-carboxylic acid [(S)-1-((2R,4R)-2-carbamoyl-1-methanesulfonyl-piperidin-4-yl)-propyl]-amide]: 10 nM; for `C[C@H](NC(=O)c1cncc2c1cnn2-c1ccc(F)cc1)c1cc(NCC(N)=O)nc(S(C)(=O)=O)c1` [1-(4-Fluorophenyl)-1H-pyrazolo[3,4-c]pyridine-4-carboxylic acid {(S)-1-[2-(carbamoylmethyl-amino)-6-methanesulfonyl-pyridin-4-yl]-ethyl}-amide]: 0.6 nM.

As usually defined, the IC50 is the concentration that gives 50% inhibition.
